Assay results published in patent US11292801B2, “Calpain modulators and therapeutic uses thereof” (Blade Therapeutics, Inc., priority 2016, dated 2022).

Columns and labels:
Human Calpain 1/NS1 = target: T1, Human Calpain 1/NS1 (Homo sapiens, UniProt P07384); test: Biochemical inhibition of calpain 1, continuous fluorescence (FRET substrate) assay; conditions: mean, read-out: Human Calpain 1/NS1 IC50 (nM)_MEAN
T1 sequence (P07384 1-714): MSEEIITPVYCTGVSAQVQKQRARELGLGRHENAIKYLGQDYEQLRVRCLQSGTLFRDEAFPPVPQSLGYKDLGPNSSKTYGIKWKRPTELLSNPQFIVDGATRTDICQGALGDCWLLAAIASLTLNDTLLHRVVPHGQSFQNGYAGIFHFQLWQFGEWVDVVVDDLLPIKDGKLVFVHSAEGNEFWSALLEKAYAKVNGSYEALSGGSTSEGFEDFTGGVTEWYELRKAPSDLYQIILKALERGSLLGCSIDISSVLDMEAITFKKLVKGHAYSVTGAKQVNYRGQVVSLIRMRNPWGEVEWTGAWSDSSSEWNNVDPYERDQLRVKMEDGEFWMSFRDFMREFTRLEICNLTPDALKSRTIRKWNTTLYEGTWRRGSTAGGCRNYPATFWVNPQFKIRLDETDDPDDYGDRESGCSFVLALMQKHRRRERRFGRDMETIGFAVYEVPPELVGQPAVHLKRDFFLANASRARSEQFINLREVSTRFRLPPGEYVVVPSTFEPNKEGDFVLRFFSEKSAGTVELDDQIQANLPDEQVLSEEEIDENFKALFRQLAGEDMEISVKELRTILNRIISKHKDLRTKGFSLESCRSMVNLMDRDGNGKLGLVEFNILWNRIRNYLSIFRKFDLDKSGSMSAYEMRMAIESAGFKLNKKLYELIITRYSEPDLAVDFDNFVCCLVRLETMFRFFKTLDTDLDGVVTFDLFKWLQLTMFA
T1 sequence (P04632 1-268 partner): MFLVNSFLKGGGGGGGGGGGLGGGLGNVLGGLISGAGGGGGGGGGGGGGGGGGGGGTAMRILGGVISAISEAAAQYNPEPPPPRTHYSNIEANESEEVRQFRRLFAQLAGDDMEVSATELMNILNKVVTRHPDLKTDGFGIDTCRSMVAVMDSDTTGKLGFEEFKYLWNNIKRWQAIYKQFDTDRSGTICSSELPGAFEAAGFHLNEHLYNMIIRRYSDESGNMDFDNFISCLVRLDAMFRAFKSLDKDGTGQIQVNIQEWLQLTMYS
Procedure, shortened: (§1)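 Continuous FRET assay with 5-FAM/QXL520 peptide substrate in 50 mM Tris pH ~7.5, 100 mM NaCl, 1 mM DTT. Enzyme preincubated with inhibitor at 25C; reaction started with substrate plus CaCl2, read at 490/520 nm for 10 min. Rates from slopes over 1-5 min, IC50 from 4-parameter logistic fit.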

Human Calpain 2/NS1 = target: T2, Human Calpain 2/NS1 (Homo sapiens, UniProt P17655); test: Biochemical inhibition of calpain 2, continuous fluorescence (FRET substrate) assay; conditions: mean, read-out: Human Calpain 2/NS1 IC50 (nM)_MEAN
T2 sequence (P17655 1-700): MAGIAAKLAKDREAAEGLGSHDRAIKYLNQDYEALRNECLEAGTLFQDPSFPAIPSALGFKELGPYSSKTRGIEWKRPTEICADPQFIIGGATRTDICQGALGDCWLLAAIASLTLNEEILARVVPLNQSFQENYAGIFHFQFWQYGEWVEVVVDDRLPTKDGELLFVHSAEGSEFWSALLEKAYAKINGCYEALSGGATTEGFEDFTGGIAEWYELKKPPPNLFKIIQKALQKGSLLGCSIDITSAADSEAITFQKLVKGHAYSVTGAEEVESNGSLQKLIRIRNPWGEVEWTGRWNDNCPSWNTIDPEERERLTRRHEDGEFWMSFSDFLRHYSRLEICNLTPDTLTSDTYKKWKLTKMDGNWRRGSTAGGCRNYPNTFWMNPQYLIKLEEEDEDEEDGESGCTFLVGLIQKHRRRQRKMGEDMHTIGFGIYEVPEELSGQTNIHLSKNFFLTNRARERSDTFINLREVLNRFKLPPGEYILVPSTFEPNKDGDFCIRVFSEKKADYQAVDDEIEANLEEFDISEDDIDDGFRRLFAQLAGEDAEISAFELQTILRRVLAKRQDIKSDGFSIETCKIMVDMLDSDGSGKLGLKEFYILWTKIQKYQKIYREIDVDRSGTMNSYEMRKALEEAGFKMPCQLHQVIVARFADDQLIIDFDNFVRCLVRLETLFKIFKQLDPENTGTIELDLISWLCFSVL
T2 sequence (P04632 1-268 partner): T1 sequence (P04632 1-268 partner)
Procedure, shortened: as §1

Human Calpain 9/NS1 = target: T3, Human Calpain 9/NS1 (Homo sapiens, UniProt O14815); test: Biochemical inhibition of calpain 9, continuous fluorescence (FRET substrate) assay; conditions: mean, read-out: Human Calpain 9/NS1 IC50 (nM)_MEAN
T3 sequence (O14815 1-690): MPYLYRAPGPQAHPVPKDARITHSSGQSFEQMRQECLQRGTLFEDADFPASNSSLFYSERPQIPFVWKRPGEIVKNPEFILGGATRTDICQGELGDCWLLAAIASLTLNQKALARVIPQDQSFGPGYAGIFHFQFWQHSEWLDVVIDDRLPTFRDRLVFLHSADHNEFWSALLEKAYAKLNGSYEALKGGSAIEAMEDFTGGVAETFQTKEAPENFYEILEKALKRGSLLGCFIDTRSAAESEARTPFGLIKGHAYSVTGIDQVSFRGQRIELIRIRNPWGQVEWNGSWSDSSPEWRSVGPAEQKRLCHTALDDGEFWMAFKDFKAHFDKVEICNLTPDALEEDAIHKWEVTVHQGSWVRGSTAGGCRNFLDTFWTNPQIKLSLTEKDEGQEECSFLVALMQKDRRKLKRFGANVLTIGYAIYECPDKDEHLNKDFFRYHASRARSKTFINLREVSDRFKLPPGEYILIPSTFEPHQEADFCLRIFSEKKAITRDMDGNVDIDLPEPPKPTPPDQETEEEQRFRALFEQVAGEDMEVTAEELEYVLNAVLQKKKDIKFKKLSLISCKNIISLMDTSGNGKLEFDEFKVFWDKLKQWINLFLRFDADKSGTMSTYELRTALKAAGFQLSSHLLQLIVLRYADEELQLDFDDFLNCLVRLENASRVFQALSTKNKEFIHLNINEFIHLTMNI
T3 sequence (P04632 1-268 partner): T1 sequence (P04632 1-268 partner)
Procedure, shortened: as §1

| Structure (SMILES) | IC50 (Human Calpain 1/NS1) [nM] | IC50 (Human Calpain 2/NS1) [nM] | IC50 (Human Calpain 9/NS1) [nM] |
| --- | --- | --- | --- |
| O=C(NC1CC1)C(=O)[C@@H]1Cc2ccc(cc2)OC/C=C/COc2cccc(c2)-c2ccn(n2)-c2ncccc2C(=O)N1 [Compound 70, N-cyclopropyl-2-oxo-2-((2^2E,6S,11E)-4-oxo-2^1H-9,14-dioxa-5-aza-3(2,3)-pyridina-2(3,1)-pyrazola-1(1,3),8(1,4)-dibenzenacyclotetradecaphan-11-en-6-yl)acetamide] | < 3000 | < 3000 | < 3000 |
| O=C[C@@H]1Cc2ccc(cc2)OCC=CCOc2ccc3nn(cc3c2)-c2ncccc2C(=O)N1 [Compound 71, (1^3Z,1^4E,5S)-3-oxo-1^2H-8,13-dioxa-4-aza-1(2,5)-indazola-2(2,3)-pyridina-7(1,4)-benzenacyclotridecaphan-10-ene-5-carbaldehyde] | < 3000 | < 3000 | < 3000 |
| O=C(NC1CC1)C(=O)[C@@H]1Cc2ccc(cc2)OCCCCOc2cccc(c2)-c2ccn(n2)-c2ncccc2C(=O)N1 [Compound 72, N-cyclopropyl-2-oxo-2-((6S,E)-4-oxo-2^1H-9,14-dioxa-5-aza-3(2,3)-pyridina-2(3,1)-pyrazola-1(1,3),8(1,4)-dibenzenacyclotetradecaphane-6-yl)acetamide] | < 3000 | < 3000 | < 3000 |
| O=C[C@@H]1Cc2ccc(cc2)CCCCc2cccc(c2)-c2ccn(n2)-c2ncccc2C(=O)N1 [Compound 73, (10S,E)-12-oxo-2^1H-11-aza-1(2,3)-pyridina-2(1,3)-pyrazola-3(1,3),8(1,4)-dibenzenacyclododecaphane-10-carbaldehyde] | < 3000 | < 3000 | < 3000 |
| O=C(NC1CC1)C(=O)[C@@H]1Cc2ccc(cc2)CCCCc2cccc(c2)-c2ccn(n2)-c2ncccc2C(=O)N1 [Compound 74, N-cyclopropyl-2-oxo-2-((10S,E)-12-oxo-2′H-11-aza-1(2,3)-pyridina-2(1,3)-pyrazola-3(1,3),8(1,4)-dibenzenacyclododecaphane-10-yl)acetamide] | < 3000 | < 3000 | < 3000 |
| O=C[C@@H]1Cc2ccc(cc2)CC=CCc2cccc(c2)-c2ccn(n2)-c2ncccc2C(=O)N1 [Compound 75, (2^2E,10S)-12-oxo-2^1H-11-aza-1(2,3)-pyridina-2(1,3)-pyrazola-3(1,3),8(1,4)-dibenzenacyclododecaphan-5-ene-10-carbaldehyde] | < 3000 | < 3000 | < 3000 |
| O=C[C@@H]1Cc2ccc(cc2)CCCCc2ccc3nn(cc3c2)-c2ncccc2C(=O)N1 [Compound 76, (1^3Z,1^4Z,5S)-3-oxo-1^2H-4-aza-1(2,5)-indazola-2(2,3)-pyridina-7(1,4)-benzenacycloundecaphane-5-carbaldehyde] | < 3000 | < 3000 | < 3000 |
| O=C(NCCc1ccc(Cl)cc1)C(=O)[C@@H]1C/C=C\COCCOCc2ccccc2C(=O)N1 [Compound 77, (S,Z)—N-(4-chlorophenethyl)-2-oxo-2-(12-oxo-1,3,4,6,9,10,11,12-octahydrobenzo[f][1,4]dioxa[9]azacyclotetradecin-10-yl)acetamide] | 3000 to 10000 | 3000 to 10000 | < 3000 |
| O=C(NCCc1ccc(Cl)cc1)C(=O)[C@@H]1C/C=C/COCCOCc2ccccc2C(=O)N1 [Compound 78, (S,E)-N-(4-chlorophenethyl)-2-oxo-2-(12-oxo-1,3,4,6,9,10,11,12-octahydrobenzo[f][1,4]dioxa[9]azacyclotetradecin-10-yl)acetamide] | 3000 to 10000 | 3000 to 10000 | < 3000 |
| O=C(NC1CC1)C(=O)[C@@H]1C/C=C/COCCOCc2ccccc2C(=O)N1 [Compound 79, (S,E)-N-cyclopropyl-2-oxo-2-(12-oxo-1,3,4,6,9,10,11,12-octahydrobenzo[f][1,4]dioxa[9]azacyclotetradecin-10-yl)acetamide] | > 10000 | > 10000 | 3000 to 10000 |
